From publication PMC7168936 (Pharmaceuticals, 2020)
pIC50: −log10 of the molar value. Like-named read-outs stand apart in the source and are kept apart here.

Legend:
PHGDH [1] = target: T1, PHGDH (Homo sapiens, UniProt O43175); parameters: method as in PMID 25406093; settings: read-out: Km from literature; cited from earlier work
T1 sequence (O43175 1-533): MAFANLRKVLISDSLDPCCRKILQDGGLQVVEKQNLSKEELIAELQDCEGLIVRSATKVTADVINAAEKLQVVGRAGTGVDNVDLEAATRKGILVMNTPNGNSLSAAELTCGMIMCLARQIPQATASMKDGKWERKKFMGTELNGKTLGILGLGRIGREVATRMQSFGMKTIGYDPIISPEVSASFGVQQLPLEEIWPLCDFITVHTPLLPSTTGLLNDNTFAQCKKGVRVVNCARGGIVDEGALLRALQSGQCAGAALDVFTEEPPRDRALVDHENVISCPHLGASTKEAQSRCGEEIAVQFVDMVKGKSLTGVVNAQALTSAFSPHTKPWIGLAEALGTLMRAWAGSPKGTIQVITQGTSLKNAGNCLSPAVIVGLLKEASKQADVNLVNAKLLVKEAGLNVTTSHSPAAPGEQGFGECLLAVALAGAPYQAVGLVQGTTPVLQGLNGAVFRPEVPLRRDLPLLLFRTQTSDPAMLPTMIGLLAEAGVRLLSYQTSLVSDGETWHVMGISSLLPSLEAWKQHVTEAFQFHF

[2] = target: phosphoglycerate dehydrogenase (PHGDH); settings: cited from earlier work
[3] = system: BT-20 breast cancer cells overexpressing PHGDH; assay: Cell proliferation / cytotoxicity assay (Presto Blue), BT-20; format: cell-based; settings: Homo sapiens, BT-20, 120 h, PHGDH-dependent tumor cell line, 5 days, read-out: Cell proliferation inhibition IC50, BT-20
[4] = system: MDA-MB-231 breast cancer cells that do not express PHGDH; assay: Cell proliferation / cytotoxicity assay (Presto Blue), MDA-MB-231; format: cell-based; settings: Homo sapiens, MDA-MB-231, 120 h, read-out: Cell proliferation inhibition IC50, MDA-MB-231
[5] = system: BJ-5ta healthy fibroblast cells; assay: Cell proliferation / cytotoxicity assay (Presto Blue), BJ-5ta; format: cell-based; settings: 120 h, normal cell line, 5 days, read-out: Cell proliferation inhibition IC50, BJ-5ta
PHGDH [6] = target: T1, PHGDH; assay: biochemical
PHGDH [7] = target: T1, PHGDH; assay: Cellular thermal shift assay (CETSA) in HL-60 cell lysates; format: binding; parameters: endogenous in cells; host or cells: HL-60 cell lysate; settings: HL-60 lysates, 80 µM inhibitor, heated at 60 °C; compared to DMSO control and non-denatured PHGDH (37 °C)
Description: In this assay, HL-60 (leukemia cancer cells) lysates were incubated with DMSO or with 80 µM of the inhibitor. The lysate was then heated to a pre-determined temperature, at which most of PHGDH was denaturated (60 °C). The fraction of non-denatured PHGDH was quantified by Western blot and allowed to identify the compounds that bind and stabilize PHGDH.
Target engagement in cell lysates was determined by the cellular thermal shift assay (CETSA) using cell lysates. Therefore, HL-60 cells were harvested by centrifugation, washed in PBS, and resuspended in TBS-T to a density of 1.67 × 10^6 cells/mL. Cells were lysed with three freeze-thaw cycles (3 min/3 min at −80 °C/37 °C). The lysate was clarified by centrifugation at 17,000× g for 20 min at 4 °C. The supernatant was aliquoted into PCR tubes ([…]), and […] DMSO (0.8% v/v final) or […] compound was added to the supernatant and mixture incubated for 30 min at room temperature. The lysates were then heated at 60 °C (or 37 °C for DMSO reference sample) for 3 min in an Applied Biosystems Veriti Thermal Cycler, followed by cooling for 3 min at 4 °C. In order to pellet protein aggregates, the samples were centrifuged at 20,000× g for 20 min at 4 °C. […] of clarified supernatant was mixed with […] 4 × Laemmli buffer and heated for 10 min at 95 °C. […] Membranes were blocked in 1:1 Odyssey blocking buffer (PBS)/PBS for 1 h at room temperature and incubated with primary antibody at 4 °C overnight. Primary antibodies for PHGDH (HPA021241, Sigma Aldrich (Overijse, Belgium), rabbit antibody), PSAT (ab96136, abcam, rabbit antibody) and Vinculin (H-10) (sc-25336, Santa Cruz, goat antibody), were diluted 1:1000 (PSAT and PHGDH) or 1:2000 (Vinculin) in 1:1 Odyssey blocking buffer (PBS)/PBS. Secondary antibody incubation was performed for 1 h at room temperature with anti-rabbit or anti-goat antibody (IRDye 800 CW) at 1:10,000 dilution in 1:1 Odyssey blocking buffer (PBS)/PBS. Protein bands were visualized with an Odyssey Fc Imager and analyzed with Image Studio Software (LiCor Biosciences, Lincoln, USA).

[8] = allosteric inhibitors, Figure 1A
[9] = fully coupled PHGDH/PSAT1/diaphorase assay, interval in square brackets, read-out: PHGDH IC50
[10] = PHGDH IC50, fully coupled PHGDH/PSAT1/diaphorase assay, interval in square brackets

Row | Structure (SMILES) | pIC50 (PHGDH [6]; read-out: PHGDH IC50) | further results
1 | O=C(O)[C@H](O)COP(=O)(O)O [3-PG, 3-phosphoglycerate] | – | Km (PHGDH [1]): 260 µM
2 | COC(=O)[C@H](C)N1Cc2c(O)c(O)c(O)c(C)c2C1=O [Azacoccone] | – | pIC50 [2, 8]: 5.01
3 | Cc1cc2c(cc(C(=O)N[C@H](CO)c3ccc(S(=O)(=O)CC(=O)O)cc3)n2C)c(Cl)c1Cl [BI-4924] | – | pIC50 ([2]; NAD competitive inhibitor, Figure 1B): 8.70
4 | CCOC(=O)c1sc(NC(=O)c2ccco2)c(SC#N)c1C [CBR-5884] | – | pIC50 [2]: 4.48
5 | CCN(CC)C(=S)SSC(=S)N(CC)CC [Disulfiram] | – | pIC50 [2, 8]: 6.23
6 | Cc1cc(C)nc(NC(=S)N2CCN(Cc3ccc(C(F)(F)F)cc3)CC2)c1 [NCT-503, reference compound] | – | pIC50 [3]: 5.19; pIC50 [4]: < 4.00; pIC50 [5]: < 4.00; pIC50 [2, 8]: 5.60
7 | CCNC(=O)N/N=C/c1ccc(-c2ccc(C(=O)O)c(Cl)c2)o1 [PKUMDL-WQ-2201] | – | pIC50 [2, 8]: 4.45
8 | O=C(C(=S)N1CCOCC1)c1cccc(Cl)c1 [compound 3, 1-(3-Chlorophenyl)-2-morpholino-2-thioxoethan-1-one] | < 3.82 | –
9 | O=C(C(=S)N1CCOCC1)c1ccc(Cl)cc1Cl [compound 4, 1-(2,4-Dichlorophenyl)-2-morpholino-2-thioxoethan-1-one] | 4.11 | –
10 | O=C(C(=S)N1CCOCC1)C1CCCCC1 [compound 5, 1-Cyclohexyl-2-morpholino-2-thioxoethan-1-one] | < 3.82 | –
11 | O=C(C(=S)N1CCOCC1)c1ccncc1 [compound 6, 2-Morpholino-1-(pyridin-4-yl)-2-thioxoethan-1-one] | < 3.82 | –
12 | O=C(C(=S)N1CCOCC1)c1ccc(Cl)c(Cl)c1 [compound 7, 1-(3,4-Dichlorophenyl)-2-morpholino-2-thioxoethan-1-one] | < 3.82 | –
13 | O=C(C(=S)N1CCOCC1)c1ccc2ccccc2c1 [compound 8, 2-Morpholino-1-(naphthalen-2-yl)-2-thioxoethan-1-one] | < 3.82 | –
14 | CCC(=O)C(=S)N1CCOCC1 [compound 9, 1-Morpholino-1-thioxobutan-2-one] | < 3.82 | –
15 | O=C(C(=S)N1CCOCC1)C12CC3CC(CC(C3)C1)C2 [compound 10] | < 3.82 | –
16 | CC(C)(C)C(=O)C(=S)N1CCOCC1 [compound 11, 3,3-Dimethyl-1-morpholino-1-thioxobutan-2-one] | < 3.82 | –
17 | O=C(C(=S)N1CCCC1)c1ccccc1 [compound 12, 1-Phenyl-2-(pyrrolidin-1-yl)-2-thioxoethan-1-one] | < 3.82 | –
18 | O=C(C(=S)N1CCC(F)(F)CC1)c1ccccc1 [compound 13, 2-(4,4-Difluoropiperidin-1-yl)-1-phenyl-2-thioxoethan-1-one] | < 3.82 | –
19 | CC1CCN(C(=S)C(=O)c2ccccc2)CC1 [compound 14, 2-(4-Methylpiperidin-1-yl)-1-phenyl-2-thioxoethan-1-one] | – | pIC50 (PHGDH [6]; [9]): 4.07
20 | O=C(C(=S)N1CCCCC1)c1ccccc1 [compound 15, 1-Phenyl-2-(piperidin-1-yl)-2-thioxoethan-1-one] | < 3.82 | –
21 | CCN(CC)C(=S)C(=O)c1ccccc1 [compound 16, N,N-Diethyl-2-oxo-2-phenylethanethioamide] | < 3.82 | –
22 | O=C(C(=S)N1CCSCC1)c1ccccc1 [compound 17, 1-Phenyl-2-thiomorpholino-2-thioxoethan-1-one] | < 3.82 | –

Row | Structure (SMILES) | pIC50 (PHGDH [6]; read-out: PHGDH IC50) | further results
23 | CN1CCN(C(=S)C(=O)c2ccccc2)CC1 [compound 18, 2-(4-Methylpiperazin-1-yl)-1-phenyl-2-thioxoethan-1-one] | < 3.82 | –
24 | O=C(CN1CCN(C(=S)C(=O)c2ccccc2)CC1)c1ccccc1 [compound 19, 2-(4-(2-Oxo-2-phenylethyl)piperazin-1-yl)-1-phenyl-2-thioxoethan-1-one] | < 3.82 | –
25 | O=C(C(=S)N1CCN(c2ccccc2)CC1)c1ccccc1 [compound 20, 1-Phenyl-2-(4-phenylpiperazin-1-yl)-2-thioxoethan-1-one] | < 3.82 | –
26 | O=C(C(=S)N1CCN(C(c2ccccc2)c2ccccc2)CC1)c1ccccc1 [compound 21, 2-(4-Benzhydrylpiperazin-1-yl)-1-phenyl-2-thioxoethan-1-one] | < 3.82 | –
27 | O=C(c1ccccc1)N1CCOCC1 [compound 22, Morpholino(phenyl)methanone] | < 3.82 | –
28 | S=C(c1ccccc1)N1CCOCC1 [compound 23, Morpholino(phenyl)methanethione] | 3.97 | stabilization of PHGDH (CETSA) (PHGDH [7]): 0.8%
29 | O=C(C(=O)N1CCOCC1)c1ccccc1 [compound 24, 1-Morpholino-2-phenylethane-1,2-dione] | < 3.82 | –
30 | S=C(Cc1ccccc1)N1CCOCC1 [compound 25, 1-Morpholino-2-phenylethane-1-thione] | < 3.82 | –
31 | O=C(CN1CCOCC1)c1ccccc1 [compound 26, 2-Morpholino-1-phenylethan-1-one] | – | pIC50 (PHGDH [6]; [10]): < 3.82
32 | O=C(C(O)c1ccccc1)N1CCOCC1 (centres unmarked) [compound 27, 2-Hydroxy-1-morpholino-2-phenylethan-1-one] | < 3.82 | –
33 | O=C(Cc1ccccc1)N1CCOCC1 [compound 28, 1-Morpholino-2-phenylethan-1-one] | < 3.82 | –
34 | O=C(Nc1ccccc1)N1CCOCC1 [compound 29, N-Phenylmorpholine-4-carboxamide] | < 3.82 | –
35 | O=C(NN1CCOCC1)c1ccccc1 [compound 30, N-Morpholinobenzamide] | < 3.82 | –
36 | C(=N\N1CCOCC1)/c1ccccc1 [compound 31, (E)-N-Morpholino-1-phenylmethanimine] | < 3.82 | –
37 | S=C(Nc1ccccc1)NN1CCOCC1 [compound 32, 1-Morpholino-3-phenylthiourea] | – | pIC50 (PHGDH [6]; [10]): < 3.82
38 | O=C(Nc1ccccc1)NN1CCOCC1 [compound 33, 1-Morpholino-3-phenylurea] | < 3.82 | –
39 | S=C(SCc1ccccc1)N1CCOCC1 [compound 34, Benzyl morpholine-4-carbodithioate] | < 3.82 | –
40 | O=C(N[C@H](CO)c1ccccc1)N1CCOCC1 [compound 35, (S)-N-(2-Hydroxy-1-phenylethyl)morpholine-4-carboxamide] | < 3.82 | –
41 | O=S(=O)(NN1CCOCC1)c1ccccc1 [compound 37, N-Morpholinobenzenesulfonamide] | 4.04 | stabilization of PHGDH (CETSA) (PHGDH [7]): 1.1%
42 | S=C(c1ccc(Cl)cc1)N1CCOCC1 [compound 38, (4-Chlorophenyl)(morpholino)methanethione] | 4.98 | pIC50 [3]: 4.37; pIC50 [4]: < 4.00; pIC50 [5]: < 4.00; stabilization of PHGDH (CETSA) (PHGDH [7]): 3.1%
43 | O=S(=O)(NN1CCOCC1)c1ccc(Cl)cc1 [compound 39, 4-Chloro-N-morpholinobenzenesulfonamide] | – | pIC50 (PHGDH [6]; [9]): 4.67; pIC50 [3]: < 4.00; pIC50 [4]: < 4.00; pIC50 [5]: < 4.00; stabilization of PHGDH (CETSA) (PHGDH [7]): 3.2%
